Laboratory results as given in US12172988B2, “Anticancer and antifungal splice modulators” (priority 2021, dated 2024).

Columns and labels:
Format in all cases: cell-based, human
SF3B2 = experiment: qPCR splicing analysis, SF3B2 intron retention; details: for SF3B2 intron retention (level of intron retention): HCT116, 4 h, 20 times GI50, qPCR relative to GAPDH; for SF3B2 intron retention: HCT116, 24 h, 100, 250, 500 nM, compared to 1
Description: (§1) HCT116 tumor cells were treated with each analogue at 20 times the G150 value (Table 12) for 4 hours and then cellular RNA was isolated and purified for qPCR. Primers were designed to evaluate intron retention or exon skipping, direct responses to splice modulator treatment. Genes evaluated included those involved in splicing regulation (SF3A1, SF3A3, SF3B1, SF3B2), apoptosis (MCL-1L), protein folding (DNAJB1), and cell cycle regulation (AURKA, PLK-1) relative to the unspliced control GAPDH. For alternative splicing regulator (SF2), primers were designed to evaluate gene expression, which changes in response splice modulator treatment for SF2 relative to the unspliced control GAPDH. (−) denotes untreated cells.
as §1, with “analogues” for “each analogue”, “100 nM (light grey), 250 nM (grey), or 500 nM (black)” for “20 times the G150 value (Table 12)”, “24 h” for “4 hours”, “(MCL-1L), and” for “(MCL-1L),”, “(DNAJB1),” for “(DNAJB1), and cell cycle regulation (AURKA, PLK-1)”, “(—)” for “(−)”
(§2) Next, we turned our efforts to explore the ability of these analogues to modulate splicing. […] We treated cells for 4 h so that we could evaluate early changes in splicing activity, and then cellular RNA was isolated and purified for analyses by qPCR (FIG. 14). Most importantly, none of the concentrations tested led to significant changes in cell viability, ensuring that changes in gene expression were not due to cell death.
(§3) For these studies, we evaluated the expression of genes involved in splicing regulation (SF3A1, SF3A3, SF3B1, SF3B2), apoptosis (MCL-1L), protein folding (DNAJB1), and cell cycle regulation (AURKA, PLK-1) relative to the unspliced control GAPDH. Primers were designed to evaluate intron retention or exon skipping, direct responses to splice modulator treatment. The master splicing regulator alternative splicing factor (SF2) was also evaluated, with the primers for this gene designed to evaluate overall gene expression, which changes in response to splice modulator treatment.
(§4) From this 4 h study (FIG. 14), a small set of analogs (1, 1b, 1g, 1d, 1e, 1i and 1j) were selected to evaluate if effects on splicing when presented for a longer 24 h period. […] Using identical procedures as that used for 4 h, HCT116 cells were treated with three concentrations (100 nM, 250 nM and 500 nM) of each analog for 24 h. Multiple concentrations were used as a means to check further validate the use of the GI50 concentration in our prior study (FIG. 14). As before, none of the concentrations tested led to significant changes in cell viability over the 24-hour time window, ensuring that changes in gene expression were not due to cell death.
(§5) Cells were treated with 1 or 1a-1j in media (McCoy's 5a (Life Technologies) supplemented with 10% FBS, 2 mM L-glutamine, and 100 U mL^−1 of penicillin and 100 μg mL^−1 of streptomycin 0.5% DMSO) for 4 h or 24 h. Untreated cells were considered were used as negative control. Total RNA was isolated using mirVana miRNA isolation kit (Life Technologies). A 1 μg sample of RNA was subjected to DNAseI from a TURBO DNA free kit (Life Technologies). The cDNA was prepared by using SuperScript III reverse transcriptase kit (Life Technologies). […]

PLK-1 = experiment: qPCR splicing analysis, PLK-1 exon skipping / RNA expression; details: for PLK-1 RNA expression: HCT116, 24 h, 100, 250, 500 nM
Description: as §1, §2, §3, §4
Cells were treated with 1 or 1a-1j in media (McCoy's 5a (Life Technologies) supplemented with 10% FBS, 2 mM L-glutamine, and 100 U mL^−1 of penicillin and 100 μg mL^−1 of streptomycin 0.5% DMSO) for 4 h or 24 h. Untreated cells were considered were used as negative control. Total RNA was isolated using mirVana miRNA isolation kit (Life Technologies). A 1 μg sample of RNA was subjected to DNAseI from a TURBO DNA free kit (Life Technologies). […] The amount of unspliced RNA for different genes was determined using Power SYBR Green PCR master mix (Applied Biosystems) by qPCR using specific primers for each gene. qPCR using 2.5 μM of each primer was performed on 5 ng of the obtained cDNA. qPCR conditions were as follows: 95° C. for 10 min for one cycle, then 95° C. for 10 min for one cycle, then 95° C. for 30 s, 55° C. for 60 s, 72° C. for 60 s, for 40 cycles using the MXPro. Quantification cycle (Cq) values were identified for each sample, and then RNA levels were calculated using 2-ΔΔCT method. […] Namely, all genes explored in this study were evaluated from the same cell cultures. […]

SF3A1 = experiment: qPCR splicing analysis, SF3A1 intron retention; details: for SF3A1 intron 6 retention (level of intron retention): HCT116, 4 h, 20 times GI50, qPCR relative to GAPDH
Description: as §1
as §1, with “analogues” for “each analogue”, “100 nM (light grey), 250 nM (grey), or 500 nM (black)” for “20 times the G150 value (Table 12)”, “24 h” for “4 hours”, “(MCL-1L), and” for “(MCL-1L),”, “(DNAJB1),” for “(DNAJB1), and cell cycle regulation (AURKA, PLK-1)”, “(—)” for “(−)”
as §2, §3, §4, §5

SMILES: CC[C@H](OC)[C@@H](C)[C@H]1O[C@@H]1[C@@H](O)[C@H](C)/C=C/C=C(\C)[C@H]1OC(=O)C[C@H](O)CC[C@@](C)(O)[C@@H](OC(C)=O)/C=C/[C@@H]1C [Analog 1d, 17S-FD-895]
- SF3B2 intron retention (level of intron retention) (SF3B2): improved efficacy
- SF3B2 intron retention (SF3B2): concentration dependent increased intron retention
- PLK-1 RNA expression (PLK-1): decreased effect at reducing
- SF3A1 intron retention (SF3A1; HCT116, 24 h, 100, 250, 500 nM, compared to 1): concentration dependent increased intron retention

SMILES: CC[C@H](OC)[C@@H](C)[C@H]1O[C@@H]1[C@@H](O)[C@H](C)/C=C/C=C(\C)[C@H]1OC(=O)C[C@@H](O)CC[C@@](C)(O)[C@@H](OC(C)=O)/C=C/[C@@H]1C [Analog 1g, 3S,17S-FD-895]
- SF3B2 intron retention (SF3B2): loss in intron retention
- effect on exon 3 inclusion in PLK-1 (PLK-1; HCT116, 4 h, 20 times GI50, qPCR): most potent effect
- PLK-1 RNA expression (PLK-1): reduced PLK-1 RNA expression

SMILES: CC[C@H](OC)[C@@H](C)[C@@H]1O[C@H]1[C@@H](O)[C@H](C)/C=C/C=C(\C)[C@H]1OC(=O)C[C@H](O)CC[C@@](C)(O)[C@@H](OC(C)=O)/C=C/[C@@H]1C [Analog 1i, 17S,18S,19S-FD-895]
- SF3B2 intron retention (level of intron retention) (SF3B2): improved efficacy
- PLK-1 RNA expression (PLK-1): increased the RNA expression relative to negative controls
- SF3A1 intron 6 retention (level of intron retention) (SF3A1): more effective than 1

SMILES: CC[C@@H](OC)[C@H](C)[C@H]1O[C@@H]1[C@@H](O)[C@H](C)/C=C/C=C(\C)[C@H]1OC(=O)C[C@H](O)CC[C@@](C)(O)[C@@H](OC(C)=O)/C=C/[C@@H]1C [Analog 1j, 17S,20S,21R-FD-895]
- SF3B2 intron retention (level of intron retention) (SF3B2): improved efficacy
- SF3A1 intron 6 retention (level of intron retention) (SF3A1): more effective than 1
